According to patent US10280170B2, “Substituted 4,5,6,7-tetrahydro-pyrazolo[1,5-a]pyrazine derivatives and 5,6,7,8-tetrahydro-4H-pyrazolo[1,5-a][1,4]diazepine derivatives as Ros1 inhibitors” (Janssen Pharmaceutica NV, priority 2014, dated 2019):
Read-outs that look alike come from different tables or passages of the source.

Key:
[1] = test system: Ba/F3 cells containing Ros1 wild-type protein + IL-3; test: Ba/F3-Ros1 cell proliferation counter-screen, wild-type protein in the presence of 10 ng/ml murine IL-3; format: cell-based; details: Mus musculus, BaF3, 24 h, read-out: BaF3-ROS1 + IL3 pIC50 (converted)
Summary of the method: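 Proliferation of IL-3-supplemented (10 ng/ml, murine) Ba/F3 cells bearing wild-type Ros1 is measured after 24 h compound treatment. Alamar Blue conversion over 4 h gives fluorescence at 590 nm.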

[2] = target: Ba/F3 cells containing Ros1 with a mutation at the gatekeeper residue (L2026M) (Homo sapiens, UniProt P08922, L2026M, cells depend on it, form not given); test: Ba/F3-Ros1 cell proliferation assay, L2026M gatekeeper mutant; format: cell-based, murine; details: without IL-3
Chain of Ba/F3 cells containing Ros1 with a mutation at the gatekeeper residue (L2026M) (P08922 whole entry L2026M, form open): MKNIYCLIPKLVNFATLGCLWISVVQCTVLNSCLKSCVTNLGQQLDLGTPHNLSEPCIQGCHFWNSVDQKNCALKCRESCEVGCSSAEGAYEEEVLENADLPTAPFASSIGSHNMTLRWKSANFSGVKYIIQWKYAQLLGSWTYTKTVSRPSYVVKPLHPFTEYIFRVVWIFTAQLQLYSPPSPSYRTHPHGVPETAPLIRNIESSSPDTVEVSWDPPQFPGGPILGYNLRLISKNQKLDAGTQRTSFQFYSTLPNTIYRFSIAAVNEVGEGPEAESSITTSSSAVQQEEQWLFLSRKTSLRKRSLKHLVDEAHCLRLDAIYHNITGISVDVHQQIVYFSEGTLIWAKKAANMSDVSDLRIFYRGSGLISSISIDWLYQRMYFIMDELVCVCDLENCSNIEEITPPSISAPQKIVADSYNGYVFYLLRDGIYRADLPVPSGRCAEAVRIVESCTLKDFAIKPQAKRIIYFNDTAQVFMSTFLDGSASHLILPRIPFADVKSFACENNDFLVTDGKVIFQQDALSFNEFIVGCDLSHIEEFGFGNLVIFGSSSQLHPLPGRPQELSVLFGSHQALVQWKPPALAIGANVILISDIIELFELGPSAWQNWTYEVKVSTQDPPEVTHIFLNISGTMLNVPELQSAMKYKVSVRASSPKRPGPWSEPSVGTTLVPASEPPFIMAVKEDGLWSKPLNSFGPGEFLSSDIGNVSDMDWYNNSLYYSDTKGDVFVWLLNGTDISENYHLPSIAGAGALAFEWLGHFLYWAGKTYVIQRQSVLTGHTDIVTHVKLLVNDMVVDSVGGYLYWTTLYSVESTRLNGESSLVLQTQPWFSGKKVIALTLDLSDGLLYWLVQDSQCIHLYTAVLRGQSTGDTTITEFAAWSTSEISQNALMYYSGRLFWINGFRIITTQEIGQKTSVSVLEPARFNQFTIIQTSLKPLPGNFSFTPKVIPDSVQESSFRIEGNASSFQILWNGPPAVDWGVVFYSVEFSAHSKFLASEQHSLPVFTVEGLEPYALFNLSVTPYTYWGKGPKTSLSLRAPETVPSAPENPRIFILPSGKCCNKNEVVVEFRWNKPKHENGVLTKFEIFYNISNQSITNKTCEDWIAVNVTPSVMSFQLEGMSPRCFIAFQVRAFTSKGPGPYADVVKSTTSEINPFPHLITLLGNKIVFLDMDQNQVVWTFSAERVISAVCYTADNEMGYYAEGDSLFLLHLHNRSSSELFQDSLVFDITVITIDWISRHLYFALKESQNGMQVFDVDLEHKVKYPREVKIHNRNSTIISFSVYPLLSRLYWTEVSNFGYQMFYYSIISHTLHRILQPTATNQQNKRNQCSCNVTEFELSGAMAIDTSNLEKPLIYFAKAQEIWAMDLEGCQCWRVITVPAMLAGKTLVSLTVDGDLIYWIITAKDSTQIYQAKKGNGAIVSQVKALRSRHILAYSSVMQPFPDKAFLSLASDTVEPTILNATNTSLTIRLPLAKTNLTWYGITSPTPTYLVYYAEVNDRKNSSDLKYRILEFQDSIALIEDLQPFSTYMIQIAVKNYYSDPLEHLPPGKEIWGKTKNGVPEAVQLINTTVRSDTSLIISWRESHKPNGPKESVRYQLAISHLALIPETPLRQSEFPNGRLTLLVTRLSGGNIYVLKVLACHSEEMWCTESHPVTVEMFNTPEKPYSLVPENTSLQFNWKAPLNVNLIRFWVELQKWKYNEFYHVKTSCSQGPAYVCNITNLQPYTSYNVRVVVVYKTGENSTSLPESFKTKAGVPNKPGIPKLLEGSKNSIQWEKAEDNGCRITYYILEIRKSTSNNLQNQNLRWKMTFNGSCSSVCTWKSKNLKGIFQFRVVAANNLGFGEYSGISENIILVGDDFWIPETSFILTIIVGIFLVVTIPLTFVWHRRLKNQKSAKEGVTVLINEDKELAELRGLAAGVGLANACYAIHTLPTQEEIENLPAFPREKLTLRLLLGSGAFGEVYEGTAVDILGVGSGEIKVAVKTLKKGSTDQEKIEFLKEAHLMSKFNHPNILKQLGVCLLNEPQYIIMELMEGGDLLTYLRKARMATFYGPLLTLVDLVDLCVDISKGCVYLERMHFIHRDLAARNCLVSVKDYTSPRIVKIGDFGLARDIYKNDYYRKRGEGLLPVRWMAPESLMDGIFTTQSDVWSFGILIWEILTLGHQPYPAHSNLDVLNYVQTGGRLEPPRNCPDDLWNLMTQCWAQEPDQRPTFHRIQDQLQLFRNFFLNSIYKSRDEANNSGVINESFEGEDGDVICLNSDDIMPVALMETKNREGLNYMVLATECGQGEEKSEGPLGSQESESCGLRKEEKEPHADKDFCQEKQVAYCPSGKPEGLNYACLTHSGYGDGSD
Summary of the method: (§1)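 Ba/F3 cells expressing wild-type, L2026M or G2032R Ros1 (20000 per well) were incubated with DMSO-solubilized compounds in phenol red-free RPMI-1640 with 10% FBS and 2 mM L-glutamine at 37 °C, 5% CO2 for 24 hours. Viability was then read by Alamar Blue fluorescence (ex 540/em 590 nm) after 4 h.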

[3] = target: T1, Ba/F3 cells containing Ros1 wild-type protein (Homo sapiens, UniProt P08922, cells depend on it, form not given); test: Ba/F3-Ros1 cell proliferation assay, wild-type Ros1; format: cell-based, murine; details: without IL-3
T1 construct: The background only speaks of 'a number of different unrelated proteins' and names SLC34A2-ROS1 for HCC78 cells
T1 sequence (P08922 whole entry, stated change not applied): as the sequence (P08922 whole entry L2026M, form open) above, with M2026L counted along it
Summary of the method: as §1

[4] = target: T2, Ros1 enzyme (Homo sapiens, UniProt P08922); test: Ros1 enzymatic assay; format: biochemical
T2 construct: 0.5 μg/ml Ros1 enzyme
T2 sequence (P08922 28-2347): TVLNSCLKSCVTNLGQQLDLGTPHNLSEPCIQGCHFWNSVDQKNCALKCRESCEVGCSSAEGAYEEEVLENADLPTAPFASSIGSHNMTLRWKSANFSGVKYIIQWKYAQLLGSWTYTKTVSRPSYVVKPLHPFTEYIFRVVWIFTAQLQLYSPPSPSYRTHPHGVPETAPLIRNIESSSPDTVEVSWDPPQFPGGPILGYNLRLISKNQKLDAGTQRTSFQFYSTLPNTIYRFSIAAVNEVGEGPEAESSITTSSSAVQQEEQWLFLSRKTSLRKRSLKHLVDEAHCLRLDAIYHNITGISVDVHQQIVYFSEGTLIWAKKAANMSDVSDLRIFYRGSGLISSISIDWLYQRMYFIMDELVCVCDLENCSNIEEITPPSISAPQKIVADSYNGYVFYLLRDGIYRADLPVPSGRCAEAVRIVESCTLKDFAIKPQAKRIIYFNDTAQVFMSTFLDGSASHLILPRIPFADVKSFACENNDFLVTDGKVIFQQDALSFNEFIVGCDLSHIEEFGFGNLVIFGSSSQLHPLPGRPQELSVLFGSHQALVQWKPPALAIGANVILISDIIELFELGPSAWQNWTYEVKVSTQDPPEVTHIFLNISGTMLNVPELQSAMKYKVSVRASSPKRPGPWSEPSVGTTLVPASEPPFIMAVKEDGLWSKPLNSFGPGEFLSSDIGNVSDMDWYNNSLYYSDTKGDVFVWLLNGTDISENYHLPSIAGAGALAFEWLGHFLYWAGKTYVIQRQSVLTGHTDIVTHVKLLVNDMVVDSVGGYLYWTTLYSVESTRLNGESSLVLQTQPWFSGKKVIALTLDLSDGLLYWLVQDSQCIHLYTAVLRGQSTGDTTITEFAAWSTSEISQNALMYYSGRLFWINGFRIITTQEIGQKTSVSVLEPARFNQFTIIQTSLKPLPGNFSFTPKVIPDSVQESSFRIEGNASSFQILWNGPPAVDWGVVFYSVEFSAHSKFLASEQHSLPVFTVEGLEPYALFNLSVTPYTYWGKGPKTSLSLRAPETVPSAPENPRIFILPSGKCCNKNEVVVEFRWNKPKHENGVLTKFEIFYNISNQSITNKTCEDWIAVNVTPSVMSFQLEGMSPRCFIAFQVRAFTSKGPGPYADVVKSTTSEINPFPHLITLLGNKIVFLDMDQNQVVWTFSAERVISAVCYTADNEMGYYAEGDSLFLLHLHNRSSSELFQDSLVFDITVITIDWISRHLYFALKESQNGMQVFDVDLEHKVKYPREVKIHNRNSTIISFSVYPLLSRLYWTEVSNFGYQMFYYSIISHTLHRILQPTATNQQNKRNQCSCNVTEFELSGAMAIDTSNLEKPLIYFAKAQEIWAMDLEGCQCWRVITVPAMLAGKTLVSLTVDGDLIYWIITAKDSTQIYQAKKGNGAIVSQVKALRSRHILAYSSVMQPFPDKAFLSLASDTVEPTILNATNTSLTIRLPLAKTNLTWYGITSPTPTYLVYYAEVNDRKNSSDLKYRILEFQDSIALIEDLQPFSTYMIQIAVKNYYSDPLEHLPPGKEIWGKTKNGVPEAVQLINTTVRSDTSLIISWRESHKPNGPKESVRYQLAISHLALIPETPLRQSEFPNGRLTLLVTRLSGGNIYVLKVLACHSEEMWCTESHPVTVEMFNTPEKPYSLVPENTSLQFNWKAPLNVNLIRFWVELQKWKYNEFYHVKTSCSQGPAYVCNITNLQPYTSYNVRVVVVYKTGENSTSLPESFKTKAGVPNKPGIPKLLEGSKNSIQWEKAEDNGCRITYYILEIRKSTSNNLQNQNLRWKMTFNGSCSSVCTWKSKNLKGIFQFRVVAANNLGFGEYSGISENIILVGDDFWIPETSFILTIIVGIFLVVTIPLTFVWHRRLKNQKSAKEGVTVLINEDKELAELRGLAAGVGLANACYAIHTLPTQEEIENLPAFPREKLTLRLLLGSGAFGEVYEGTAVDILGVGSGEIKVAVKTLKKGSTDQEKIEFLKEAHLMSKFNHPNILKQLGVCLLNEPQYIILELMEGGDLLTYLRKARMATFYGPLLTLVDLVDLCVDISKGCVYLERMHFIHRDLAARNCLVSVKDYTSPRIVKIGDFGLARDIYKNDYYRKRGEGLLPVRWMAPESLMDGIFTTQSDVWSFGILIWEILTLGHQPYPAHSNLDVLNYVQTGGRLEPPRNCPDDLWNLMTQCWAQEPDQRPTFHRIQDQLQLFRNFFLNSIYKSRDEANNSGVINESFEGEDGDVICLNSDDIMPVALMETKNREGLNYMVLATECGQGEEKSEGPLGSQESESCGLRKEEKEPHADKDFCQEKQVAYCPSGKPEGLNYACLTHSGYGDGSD
Summary of the method: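 Peptide phosphorylation by Ros1 is measured by 33P transfer from 20 μM ATP (as prepared in substrate mix) over 2 h at ambient temperature, pH 7.5 with Mg2+.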

[5] = test system: HCC78 non-small cell lung cancer cells; test: HCC78 cell proliferation assay; format: cell-based; details: for EC50: Homo sapiens, HCC78, 96 h, read-out: HCC-78 PROL pEC50 (converted)
Summary of the method: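 HCC78 NSCLC cells (~1000/well) in RPMI-1640 with 10% FBS were treated 24 h after seeding and exposed to compound for 4 days at 37 °C. Viability was read by MTT, with absorbance at 538 nm after DMSO/glycine solubilization.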

[6] = Ros1 enzymatic assay, read-out: ROS1 pIC50 (converted)
[7] = counter-screen, wild-type, 10 ng/ml murine IL-3

| EC50 ([5]; HCC78 cells, 4 days, MTT) [nM] | HCC-78 PROL pEC50 ([5]; HCC78 cells, 4 days, MTT) | Compound | CC50 [1] [nM] | Ba/F3 Ros1 L2026M (-IL-3) pIC50 [2] | melting point [°C] | BaF3-ROS1-IL3 pIC50 [3] | IC50 [4, 6] [nM] | EC50 [5] [nM] | IC50 ([4]; ROS1 pIC50, Ros1 enzymatic assay) [nM] | CC50 [1, 7] [nM] |
| --- | --- | --- | --- | --- | --- | --- | --- | --- | --- | --- |
| – | – | CC(C)OCC(O)CN1CCn2nc(-c3ccncc3)c(-c3ccc(OCc4ccc(C(C)C)cc4)cc3)c2C1=O (stereo not drawn) [Compound 45] | > 10000 | 6.6 | 148 | 6.7 | 158 | 1260 | – | – |
| – | – | COCCN1CCn2nc(-c3ccncc3)c(-c3ccc(OCc4ccc(C(C)C)cc4)cc3)c2C1=O [Compound 50] | > 10000 | 7.2 | 167 | 7.1 | 50.1 | 158 | – | – |
| – | – | CC(C)c1ccc(COc2ccc(-c3c(-c4ccncc4)nn4c3C(=O)N(CCS(C)(=O)=O)CC4)cc2)cc1 [Compound 52] | > 10000 | 6.9 | 219 | 7.6 | 50.1 | 251 | – | – |
| – | – | CC(C)c1ccc(COc2ccc(-c3c(-c4ccncc4)nn4c3C(=O)N(CC3CCCO3)CC4)cc2)cc1 (stereo not drawn) [Compound 55] | > 10000 | 6.8 | 165 | 7.0 | 126 | 794 | – | – |
| – | – | CC(C)c1ccc(COc2ccc(-c3c(-c4ccncc4)nn4c3C(=O)N(CC(=O)N(C)C)CC4)cc2)cc1 [Compound 64] | > 10000 | 6.6 | 199 | 7.1 | 79.4 | 631 | – | – |
| – | – | CC(C)NC(=O)CN1CCn2nc(-c3ccncc3)c(-c3ccc(OCc4ccc(C(C)C)cc4)cc3)c2C1=O [Compound 65] | > 10000 | 6.7 | 159 | 7.2 | 100 | 316 | – | – |
| – | – | CCOP(=O)(CCN1CCn2nc(-c3ccncc3)c(-c3ccc(OCc4ccc(C(C)C)cc4)cc3)c2C1=O)OCC [Compound 68] | 2510 | 6.5 | 90 | 6.7 | – | 2510 | 316 | – |
| – | – | COc1cc(-c2c(-c3ccncc3)nn3c2C(=O)NCC3)ncc1OCc1ccc(C(C)C)cc1 [Compound 72] | > 10000 | 6.0 | 231 | 7.2 | 63.1 | 251 | – | – |
| – | – | CC(C)c1ccc(COc2cc(F)c(-c3c(-c4ccncc4)nn4c3C(=O)NCC4)cn2)cc1 [Compound 73] | > 10000 | 7.4 | 207 | 7.9 | 15.8 | 126 | – | – |
| – | – | CC(C)c1ccc(COc2ccc(-c3c(-c4ccncc4)nn4c3C(=O)NCC4)c(F)n2)cc1 [Compound 74] | > 10000 | 7.5 | 275 | 8.1 | 15.8 | 12.6 | – | – |
| – | – | CC(C)c1ccc(COc2ncc(-c3c(-c4ccncc4)nn4c3C(=O)NCC4)cn2)cc1 [Compound 75] | > 10000 | 7.5 | 126 | 7.9 | 12.6 | 63.1 | – | – |
| – | – | CC(C)c1ccc(COc2cnc(-c3c(-c4ccncc4)nn4c3C(=O)NCC4)cn2)cc1 [Compound 76] | > 10000 | 7.0 | 225 | 6.8 | 251 | 794 | – | – |
| 794 | – | Cc1cc(C(C)C)ccc1COc1ccc(-c2c(-c3ccncc3)nn3c2C(=O)NCC3)cc1 [Compound 78] | – | 6.9 | 247 | 7.1 | 251 | – | – | > 10000 |
| – | – | CC(C)c1ccc(COc2ccc(-c3c(-c4ccncc4)nn4c3C(=O)N(CCO)CC4)cc2)cc1O [Compound 79] | > 10000 | 7.3 | 236 | 7.8 | 25.1 | 2510 | – | – |
| – | – | CC(C)c1ccc(COc2ccc(-c3c(-c4ccncc4)nn4c3C(=O)N(CCO)CC4)cc2)cn1 [Compound 81] | > 10000 | 6.5 | 93 | 7.3 | 63.1 | 158 | – | – |
| 316 | – | CC(C)c1ccc(COc2ccc(-c3c(-c4ccncc4)nn4c3C(=O)NCC4)cc2)cc1C#N [Compound 85] | – | 7.1 | 240 | 7.4 | 39.8 | – | – | > 10000 |
| – | – | CC(C)c1ccc(COc2ccc(-c3c(-c4ccncc4)nn4c3C(=O)N(CCO)CC4)cc2)cc1C#N [Compound 87] | > 10000 | 7.2 | 160 | 7.3 | 39.8 | 200 | – | – |
| 79.4 | – | CC(C)c1ccc(COc2ccc(-c3c(-c4ccncc4)nn4c3C(=O)NCC4)cc2)cc1CCN [Compound 88] | – | 6.8 | 181 | 7.1 | 12.6 | – | – | > 10000 |
| – | – | COCCOc1cc(COc2ccc(-c3c(-c4ccncc4)nn4c3C(=O)NCC4)cc2)ccc1C(C)C [Compound 90] | > 10000 | 7.4 | 209 | 7.2 | 79.4 | 158 | – | – |
| – | – | CC(C)c1ccc(COc2ccc(-c3c(-c4ccncc4)nn4c3C(=O)N(CCO)CC4)cc2)c(F)c1 [Compound 92] | > 10000 | 6.7 | 132 | 7.2 | 50.1 | 200 | – | – |
| – | – | CC(C)c1ccc(COc2ccc(-c3c(-c4ccncc4)nn4c3C(=O)N(CCO)CC4)cc2)cc1F [Compound 93] | > 10000 | 7.0 | 183 | 7.2 | 79.4 | 398 | – | – |
| – | – | CC(C)c1cc(F)c(COc2ccc(-c3c(-c4ccncc4)nn4c3C(=O)N(CCO)CC4)cc2)c(F)c1 [Compound 94] | > 10000 | 6.6 | 194 | 7.0 | 100 | 398 | – | – |
| – | 6.5 | CC(C)c1cc(F)c(COc2ccc(-c3c(-c4ccncc4)nn4c3C(=O)N(CC(O)CO)CC4)cc2)cc1F (stereo not drawn) [Compound 98] | – | 6.6 | 184 | 6.8 | 251 | – | – | > 10000 |
| – | – | Cc1ccc(COc2ccc(-c3c(-c4ccncc4)nn4c3C(=O)NCC4)cc2)cc1 [Compound 105] | > 10000 | 6.6 | 259 | 7.0 | 126 | 158 | – | – |
| – | – | CCC(C)c1ccc(COc2ccc(-c3c(-c4ccncc4)nn4c3C(=O)N(CCO)CC4)cc2)cc1 (stereo not drawn) [Compound 107] | > 10000 | 7.4 | 163 | 7.7 | 20 | 79.4 | – | – |
